Each molecule was assayed against Human factor D (Homo sapiens (Human), UniProt P00746).
Type: biochemical

Sequence of Human factor D (P00746 26-253 limits assumed): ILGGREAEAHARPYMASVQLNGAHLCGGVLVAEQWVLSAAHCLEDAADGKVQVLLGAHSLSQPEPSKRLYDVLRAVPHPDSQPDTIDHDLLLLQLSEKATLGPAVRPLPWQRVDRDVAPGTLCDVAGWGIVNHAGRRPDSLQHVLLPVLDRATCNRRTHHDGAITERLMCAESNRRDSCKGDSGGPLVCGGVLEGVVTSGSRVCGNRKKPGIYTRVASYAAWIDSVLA

Compound	IC50 [nM]
CC(=O)c1cn(CC(=O)N2C[C@H](F)C[C@H]2C(=O)NCc2cccc(Cl)c2F)c2cc(P(=O)(O)OCC(F)(F)F)ccc12 [Compound 29, 2,2,2-trifluoroethyl hydrogen 3-acetyl-1-(2-((2S,4R)-2-(3-chloro-2-fluorobenzylcarbamoyl)-4-fluoropyrrolidin-1-yl)-2-oxoethyl)-1H-indol-6-ylphosphonate]	< 1000
CC(=O)c1cn(CC(=O)N2C[C@H](F)C[C@H]2C(=O)NCc2cccc(Cl)c2F)c2cc(P(=O)(O)O)ccc12 [Compound 3, 3-acetyl-1-(2-((2S,4R)-2-(3-chloro-2-fluorobenzylcarbamoyl)-4-fluoropyrrolidin-1-yl)-2-oxoethyl)-1H-indol-6-ylphosphonic acid]	< 1000
CC(=O)c1cn(CC(=O)N2C[C@H](F)C[C@H]2C(=O)NCc2cccc(Cl)c2F)c2ccc(P(=O)(O)O)cc12 [Compound 10, 3-acetyl-1-(2-((2S,4R)-2-(3-chloro-2-fluorobenzylcarbamoyl)-4-fluoropyrrolidin-1-yl)-2-oxoethyl)-1H-indol-5-ylphosphonic acid]	< 1000
CCCCOP(=O)(OCCCC)c1ccc2c(C(C)=O)cn(CC(=O)N3C[C@H](F)C[C@H]3C(=O)NCc3cccc(Cl)c3F)c2c1 [Compound 20, dibutyl 3-acetyl-1-(2-((2S,4R)-2-(3-chloro-2-fluorobenzylcarbamoyl)-4-fluoropyrrolidin-1-yl)-2-oxoethyl)-1H-indol-6-ylphosphonate]	< 1000
CCOP(=O)(OCC)c1ccc2c(C(C)=O)cn(CC(=O)N3C[C@H](F)C[C@H]3C(=O)NCc3cccc(Cl)c3F)c2c1 [Compound 1, diethyl 3-acetyl-1-(2-((2S,4R)-2-(3-chloro-2-fluorobenzylcarbamoyl)-4-fluoropyrrolidin-1-yl)-2-oxoethyl)-1H-indol-6-ylphosphonate]	< 1000
CC(=O)c1cn(CC(=O)N2C[C@H](F)C[C@H]2C(=O)NCc2cccc(Cl)c2F)c2cc(P(=O)(O)c3ccccc3)ccc12 [Compound 25, 3-acetyl-1-(2-((2S,4R)-2-(3-chloro-2-fluorobenzylcarbamoyl)-4-fluoropyrrolidin-1-yl)-2-oxoethyl)-1H-indol-6-yl(phenyl)phosphinic acid]	< 1000
CCOP(=O)(c1ccccc1)c1ccc2c(C(C)=O)cn(CC(=O)N3C[C@H](F)C[C@H]3C(=O)NCc3cccc(Cl)c3F)c2c1 (stereo partly drawn) [Compound 23, ethyl 3-acetyl-1-(2-((2S,4R)-2-(3-chloro-2-fluorobenzylcarbamoyl)-4-fluoropyrrolidin-1-yl)-2-oxoethyl)-1H-indol-6-yl(phenyl)phosphinate]	< 1000
CCOP(=O)(OCC)c1cc2c(cc1F)c(C(C)=O)cn2CC(=O)N1C[C@H](F)C[C@H]1C(=O)NCc1cccc(Cl)c1F [Compound 30, diethyl 3-acetyl-1-(2-((2S,4R)-2-(3-chloro-2-fluorobenzylcarbamoyl)-4-fluoropyrrolidin-1-yl)-2-oxoethyl)-5-fluoro-1H-indol-6-ylphosphonate]	< 1000
NC(=O)c1nn(CC(=O)N2C[C@H](F)C[C@H]2C(=O)NCc2cccc(Cl)c2F)c2cc(P(=O)(O)O)ccc12 [Compound 18, 3-carbamoyl-1-(2-((2S,4R)-2-(3-chloro-2-fluorobenzylcarbamoyl)-4-fluoropyrrolidin-1-yl)-2-oxoethyl)-1H-indazol-6-ylphosphonic acid]	< 1000
CC(=O)c1cn(CC(=O)N2C[C@H](F)C[C@H]2C(=O)NCc2cccc(Cl)c2F)c2cc(P(=O)(OCC(F)(F)F)OCC(F)(F)F)ccc12 [Compound 19, bis(2,2,2-trifluoroethyl) 3-acetyl-1-(2-((2S,4R)-2-(3-chloro-2-fluorobenzylcarbamoyl)-4-fluoropyrrolidin-1-yl)-2-oxoethyl)-1H-indol-6-ylphosphonate]	< 1000
CCCCOP(=O)(O)c1ccc2c(C(C)=O)cn(CC(=O)N3C[C@H](F)C[C@H]3C(=O)NCc3cccc(Cl)c3F)c2c1 [Compound 21, butyl hydrogen 3-acetyl-1-(2-((2S,4R)-2-(3-chloro-2-fluorobenzylcarbamoyl)-4-fluoropyrrolidin-1-yl)-2-oxoethyl)-1H-indol-6-ylphosphonate]	< 1000
CC(=O)c1cn(CC(=O)N2C[C@H](F)C[C@H]2C(=O)NCc2cccc(Cl)c2F)c2cc(P(=O)(OCOC(=O)OC(C)C)OCOC(=O)OC(C)C)ccc12 [Compound 4, ((3-acetyl-1-(2-((2S,4R)-2-(3-chloro-2-fluorobenzylcarbamoyl)-4-fluoropyrrolidin-1-yl)-2-oxoethyl)-1H-indol-6-yl)phosphoryl)bis(oxy)bis (methylene) isopropyl dicarbonate]	< 1000
